Assay results as given in the supplement of paper PMC11208160.

Experiment: recombinant barcode read abundance after kanamycin selection (control-corrected) (log10(CPM+1)); higher = more efficient recombination; sequences stand for … in AGTGCAGAGAAAATCGGCCAGTTTTCTCTGCCTGCAGTCCGCATGCCGT…AGATTTATGCAGCGGACTGCCTTTCTCCCAAAGTGATAAACCGGACAGTATCATGGACCGGTTTTCCCGGTAATCCGTATTTGCAAGGTTGGTTTCACT; site = the 11-nt target
Method in brief: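 Recombination efficiency was calculated from barcode counts at recombinant junctions, normalized to counts per million, averaged and corrected by the control. Each value is given as log10(CPM+1). The constructs were Gibson-cloned oligos (promoter, target, barcode, J23119-driven first 104 bridge RNA bases) in a vector with the remaining 73 bp and a T7-inducible recombinase, co-electroporated into E. coli with a donor plasmid and plated in duplicate on chloramphenicol/ampicillin LB agar (control) or chloramphenicol/ampicillin/kanamycin with 0.1 mM IPTG.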
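Note: IS621 recombinase and bridge RNA in Escherichia coli cells.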

Row | Sequence | recombinant barcode read abundance (log10)
1 | TCCTATGCTTGGGTTCTAACCTGTTGCTA (site TCCTATGCTTA) | 0.0755
2 | TCCTATTCTTGGGTTCTAACCTGTTGCGA (site TACTATGCTTC) | 0.141
3 | TCCTATTCTTGGGTTCTAACCTGTTGCGA (site TCCTATTCTTC) | 0.544
4 | TCCTGGGCTTGGGTTCTAACCTGTTGCCG (site TCCTGGGCTCG) | 0.0509
5 | TCCTGGGCTTGGGTTCTAACCTGTTGCCG (site TTATGGGCTCG) | 0.0305
6 | TCCTGTACTTGGGTTCTAACCTGTTGCAT (site TCCAGTACTAT) | 0.272
7 | TCCTGTACTTGGGTTCTAACCTGTTGCAT (site TCCCGTACTAT) | 0.705
8 | TCCTGTACTTGGGTTCTAACCTGTTGCAT (site TCCGGTACTAT) | 0.00868
9 | TCCTGTACTTGGGTTCTAACCTGTTGCAT (site TCCTGTACTAT) | 1.01
10 | TCGAACCCTTGGGTTCTAACCTGTTGCGA (site TCGAACCCTTC) | 0.927
11 | TCGAACCCTTGGGTTCTAACCTGTTGCGA (site TCGCACCCTTC) | 0.0454
12 | TCGAACCCTTGGGTTCTAACCTGTTGCGA (site TCGGACCCTTC) | 0.114
13 | TCGAACCCTTGGGTTCTAACCTGTTGCGA (site TCGTACCCTTC) | 0.0144
14 | TCGAACCCTTGGGTTCTAACCTGTTGCTT (site GCGAACCCTAA) | 0.0343
15 | TCGAACCCTTGGGTTCTAACCTGTTGCTT (site TCGAACCCTAA) | 0.258
16 | TCGAAGGCTTGGGTTCTAACCTGTTGCCT (site TCAAAGGCTAG) | 0.411
17 | TCGAAGGCTTGGGTTCTAACCTGTTGCCT (site TCCAAGGCTAG) | 0.0717
18 | TCGAAGGCTTGGGTTCTAACCTGTTGCCT (site TCGAAGGCTAG) | 0.382
19 | TCGAAGGCTTGGGTTCTAACCTGTTGCCT (site TCTAAGGCTAG) | 0.0236
20 | TCGAATCCTTGGGTTCTAACCTGTTGCCT (site TCGAAACCTAG) | 0.0251

Row | Sequence | recombinant barcode read abundance (log10)
21 | TCGAATCCTTGGGTTCTAACCTGTTGCCT (site TCGAACCCTAG) | 0.0582
22 | TCGAATCCTTGGGTTCTAACCTGTTGCCT (site TCGAAGCCTAG) | 0.0385
23 | TCGAATCCTTGGGTTCTAACCTGTTGCCT (site TCGAATCCTAG) | 0.173
24 | TCGAATGCTTGGGTTCTAACCTGTTGCCT (site TCGAATGCTAG) | 0.0629
25 | TCGAATGCTTGGGTTCTAACCTGTTGCCT (site TCGGATGCTAA) | 0.0663
26 | TCGACGCCTTGGGTTCTAACCTGTTGCTT (site ACGACGTCTAA) | 0.0317
27 | TCGACGCCTTGGGTTCTAACCTGTTGCTT (site TCGACGCCTAA) | 0.145
28 | TCGAGAGCTTGGGTTCTAACCTGTTGCTA (site TCGAGAGCTCG) | 0.183
29 | TCGAGAGCTTGGGTTCTAACCTGTTGCTA (site TCGAGAGCTTA) | 0.446
30 | TCGAGTGCTTGGGTTCTAACCTGTTGCCT (site TCGAGTACTAG) | 0.187
31 | TCGAGTGCTTGGGTTCTAACCTGTTGCCT (site TCGAGTCCTAG) | 0.19
32 | TCGAGTGCTTGGGTTCTAACCTGTTGCCT (site TCGAGTGCTAG) | 0.0982
33 | TCGAGTGCTTGGGTTCTAACCTGTTGCCT (site TCGAGTTCTAG) | 0
34 | TCGCAGACTTGGGTTCTAACCTGTTGCCT (site CCGCAGACTTG) | 0.54
35 | TCGCAGACTTGGGTTCTAACCTGTTGCCT (site TCGCAGACTAG) | 0.286
36 | TCGCATTCTTGGGTTCTAACCTGTTGCAT (site TCGCATTCTAT) | 0.159
37 | TCGCATTCTTGGGTTCTAACCTGTTGCAT (site TCGCGTTCTAA) | 0.198
38 | TCGCGAACTTGGGTTCTAACCTGTTGCCT (site TCGCGAACTAG) | 0.252
39 | TCGCGAACTTGGGTTCTAACCTGTTGCCT (site TCGGGAACTAG) | 0
40 | TCGCGTACTTGGGTTCTAACCTGTTGCAT (site GCTCGTACTAT) | 0.0605

Row | Sequence | recombinant barcode read abundance (log10)
41 | TCGCGTACTTGGGTTCTAACCTGTTGCAT (site TCGCGTACTAT) | 0.189
42 | TCGCGTCCTTGGGTTCTAACCTGTTGCAA (site TAGCGTCCTGT) | 0.119
43 | TCGCGTCCTTGGGTTCTAACCTGTTGCAA (site TCGCGTCCTTT) | 0.402
44 | TCGCGTCCTTGGGTTCTAACCTGTTGCAG (site TCACGTCCTCT) | 0.231
45 | TCGCGTCCTTGGGTTCTAACCTGTTGCAG (site TCGCGTCCTCT) | 0.379
46 | TCGCGTGCTTGGGTTCTAACCTGTTGCGG (site CATTCCACTAG) | 0.0782
47 | TCGCGTGCTTGGGTTCTAACCTGTTGCGG (site TCGCGTGCTCC) | 0.363
48 | TCGCGTTCTTGGGTTCTAACCTGTTGCTT (site TCGCATTCTAT) | 0.217
49 | TCGCGTTCTTGGGTTCTAACCTGTTGCTT (site TCGCGTTCTAA) | 0.677
50 | TCGCTAGCTTGGGTTCTAACCTGTTGCCT (site ACGCTAGCTAG) | 0.0632
51 | TCGCTAGCTTGGGTTCTAACCTGTTGCCT (site CCGCTAGCTAG) | 0.4
52 | TCGCTAGCTTGGGTTCTAACCTGTTGCCT (site GCGCTAGCTAG) | 0.0173
53 | TCGCTAGCTTGGGTTCTAACCTGTTGCCT (site TCGCTAGCTAG) | 0.0976
54 | TCGTATACTTGGGTTCTAACCTGTTGCGG (site TAGTATACTCA) | 0.193
55 | TCGTATACTTGGGTTCTAACCTGTTGCGG (site TCGTATACTCC) | 0.396
56 | TCGTGAGCTTGGGTTCTAACCTGTTGCCT (site TAGTGAGCTAG) | 0.0646
57 | TCGTGAGCTTGGGTTCTAACCTGTTGCCT (site TCGTGAGCTAG) | 0.226
58 | TCGTGAGCTTGGGTTCTAACCTGTTGCTG (site GGTGACCCTAT) | 0.147
59 | TCGTGAGCTTGGGTTCTAACCTGTTGCTG (site TCGTGAGCTCA) | 0.301
